Drawing on paper PMC11042424, “Development of a First-in-Class RIPK1 Degrader to Enhance Antitumor Immunity” (Research Square, 2024), this text covers IC50 and Ki for one compound.

The target in the experiment is T1, GST-tagged human RIPK1 (Homo sapiens, UniProt Q13546).
T1 construct: purchased SignalChem R07–11G-10
T1 sequence (Q13546 1-327 limits assumed): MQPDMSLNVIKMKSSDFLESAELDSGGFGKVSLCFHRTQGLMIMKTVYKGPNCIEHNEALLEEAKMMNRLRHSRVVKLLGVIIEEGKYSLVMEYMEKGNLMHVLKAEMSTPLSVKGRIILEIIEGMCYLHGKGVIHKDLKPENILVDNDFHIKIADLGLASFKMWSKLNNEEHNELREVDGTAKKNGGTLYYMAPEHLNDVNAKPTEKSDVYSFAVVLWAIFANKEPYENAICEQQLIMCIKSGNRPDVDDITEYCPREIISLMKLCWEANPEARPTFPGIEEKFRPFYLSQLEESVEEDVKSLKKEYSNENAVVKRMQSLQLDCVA
Description: TR-FRET biochemical binding assay for RIPK1. Here is the method: Figure 2 LD4172, a RIPK1 PROTAC, induces potent and highly specific degradation of RIPK1 in a panel of cell lines. A, Chemical structures of RIPK1 PROTAC, LD4172, and its negative control, LD4172-NC. […] B, Quantification of RIPK1 levels in both Jurkat and B16F10 cells treated with LD4172 at indicated concentrations for 24 h, followed by Western blotting. C, DC50 and Dmax of LD4172 in various human and mouse cell lines. DC50, the drug concentration causing 50% protein degradation; Dmax, the maximum level of protein degradation. D, RIPK1 degradation kinetics induced by LD4172 treatment (1 μM) and resynthesis kinetics upon washout of LD4172 in both Jurkat and B16F10 cells. […] G, Time-resolved fluorescence resonance energy transfer (TR-FRET) based biochemical binding assay for RIPK1. […] In total, ~10,000 proteins were quantified in the proteomics experiment. […]
A time-resolved fluorescence resonance energy transfer (TR-FRET) assay was performed to evaluate the binding of the indicated compounds and RIPK1 by competition with a BODIPY-FL labeled RIPK1 tracer (Supplementary Information, T2I-488). […] The assay mixtures were incubated at room temperature in the dark for 120 min, and the signals were collected using a BioTek Synergy H1 microplate reader to measure the fluorescence emission ratio (I520 nm/I490 nm) of each well using a 340-nm excitation filter, a 100-μs delay, and a 200-μs integration time. […]

For the compound `Cc1ncsc1-c1ccc([C@H](C)NC(=O)[C@@H]2C[C@@H](O)CN2C(=O)[C@@H](NC(=O)CCCCCCCCCCC(=O)NCCCn2cc(-c3ccc4c(c3)CCN4C(=O)Cc3cccc(OC(F)(F)F)c3)c3c(N)ncnc32)C(C)(C)C)cc1` [LD4172], the IC50 (2 hours incubation, n=3, read-out: IC50, Fig. 2G) came out at 9.6 nM. Besides, under “recombinant human RIPK1 protein”, the inhibition constant Ki was 4.8 nM.
